The record followed here is patent publication US5830855A, “Lipodepsipeptides as antifungal and fungicidal agents” (priority 1996, dated 1998).

Experiment [1] concerns Mucor spp. Description: Broth microdilution MIC. In kind it is cell-based. As to conditions: Table 1 (MICs), 5 isolates, 48 hr. As for the experimental part: (§1) Medium: Liquid RPMI 1640 (RPMI) medium with L-glutamine and without sodium bicarbonate (Sigma Chemical Co., R-6504; St. Louis, Mo.) buffered with 0.165M MOPS (34.54 g/liter) was used for in vitro antifungal tests. The medium was adjusted to pH 7.0 with 10M NaOH and filter sterilized.
Lipodepsipeptide Dilutions: All stock drug solution concentrations were at least 10-fold higher than the highest concentration tested. AmB, ketoconazole, and the test compounds (SR-E, ST-B, and SS-A) were dissolved in sterile distilled water, 0.2N HCl, and 0.001N HCl, respectively. Each stock solution was diluted to 2× the highest concentration of drug tested with RPMI. Two-fold dilutions were made with RPMI medium.
Preparation of Inoculum Suspensions: On Sabouraud dextose agar (SDA; BBL, Becton and Dickinson and Co., Cockeysville, Md.) all isolates were subcultured at least twice before use to ensure purity and viability. Candida spp. and Saccharomyces cerevisiae were grown for 24 hr at 35° C. Isolates of Cryptococcus neoformans were grown for 48 hr at 35° C. Yeast cells from at least five 1-mm-diameter colonies were suspended in 5 ml of sterile 0.85% saline. The resulting suspension was vortexed for 15 sec. The turbidity of each mixed suspension was measured at 530 nm and adjusted to 1×10^6 to 5×10^6 CFU/ml by the NCCLS spectrophotometric method described by National Committee for Clinical Laboratory Standards. 1992. Reference method for broth dilution antifungal susceptibility testing of yeasts; proposed standard, NCCLS document M27-P (ISBN 1-56238-186-5). NCCLS, Villanova. The final transmission of each yeast suspension ranged from 85-87%.
Aspergillus fumigatus and Mucor spp. were grown for 1 wk at 35° C. The dermatophytes, Microsporum spp. and Trichophyton spp., were grown for two wk at 30° C. Fungal spores were washed from the plates of all good spore formers (A. fumigatus, Mucor spp., Microsporum canis and Trichophyton spp.) by placing 5 ml of 0.85% saline with 0.2% Tween 80 on the plates and mixing with an inoculating loop. The spore/mycelium suspension was drawn off with a pipette and allowed to settle for at least 5 min. For the poor spore-forming Microsporum audouinii, the procedure was the same except the spore/mycelial suspension was homogenized with a ground glass tissue homogenizer and then allowed to settle for at least 5 min. A small amount of the supernatant was transferred to 5 ml of sterile saline and vortexed. The stock suspensions of all filamentous fungi were measured at 530 nm and adjusted to 85-87% transmission. The concentration (1×10^6 to 5×10^6 CFU/ml) was determined by hemacytometer count or plate count on SDA. All stock suspensions were diluted 1000-fold with RPMI, or 2× the final desired test inocula. The 2× inoculum was diluted 1:1 when the wells were inoculated, and the desired inoculum size was achieved.
Broth Microdilution Test: Broth microdilution tests were performed using sterile, disposable, multiwell microdilution plates (96 round U-bottom wells) (Falcon 3077; Becton and Dickinson Labware, Lincoln Park, N.J.). The drugs (2× concentrations) were dispensed into the wells of rows number 1 to 10 of the microdilution plates in 100 μl volumes from highest drug concentration to lowest drug concentration. Each well was inoculated with 100 μl of the corresponding 2× concentrated fungal suspension. The wells of row 11 contained the inoculum with drug-free media as a positive growth control and the wells of row 12 contained uninoculated-drug-free medium as a sterility control.
Incubation and Scoring of MIC: All cultures were incubated without shaking at the temperature used during subculture. Incubation times were 48 hr for Candida spp., S. cerevisiae, A. fumigatus, and Mucor spp; 72 hr for C. neoformans; and 7 days for Microsporum and Trichophyton spp. […]

For experiment [2], the system named is clinical isolates (fungi). The experiment is described as follows: Broth microdilution MIC, fungal isolates overall. It is filed as cell-based. As to conditions: summary range over the fungi tested.
Description: Most of the fungal strains used in the tests were clinical isolates obtained from the University of Texas Health Science Center at San Antonio Fungus Testing Laboratory (San Antonio, Tex.) and the remaining isolates were ATCC strains.
as §1
Lipodepsipeptide Dilutions: All stock drug solution concentrations were at least 10-fold higher than the highest concentration tested. […]
Preparation of Inoculum Suspensions: On Sabouraud dextose agar (SDA; BBL, Becton and Dickinson and Co., Cockeysville, Md.) all isolates were subcultured at least twice before use to ensure purity and viability. […] The turbidity of each mixed suspension was measured at 530 nm and adjusted to 1×10^6 to 5×10^6 CFU/ml by the NCCLS spectrophotometric method described by National Committee for Clinical Laboratory Standards. […]
Aspergillus fumigatus and Mucor spp. were grown for 1 wk at 35° C. […] The stock suspensions of all filamentous fungi were measured at 530 nm and adjusted to 85-87% transmission. The concentration (1×10^6 to 5×10^6 CFU/ml) was determined by hemacytometer count or plate count on SDA. […]

Experiment [3] concerns pokeweed mitogen (PWM)-induced lymphocyte proliferation. The experiment is described as follows: PWM-induced lymphocyte proliferation ([3H]-thymidine incorporation). It is filed as cell-based, human. As for the experimental part: (§2) Lipodepsipeptide for Immunosuppression Experiments: SR-E was purified as previously described in Bidwai, A. P., Bachmann, R. C. and Takemoto, J. Y., "Mechanism of action of Pseudomonas syringae phytotoxin syringomycin". Plant Physiol. 83:39-43 (1987). A stock solution (10 mg per ml) was prepared in RPMI1640 culture media, aliquoted and stored frozen at -20°.
(§3) Lymphocyte stimulation: Lymphocyte stimulation was performed with three different mitogens: phytohemagglutinin (PHA), pokeweed mitogen (PWM), and monoclonal antibody to CD3 (anti-CD3). […]
(§4) Mitogen-induced lymphocyte proliferation: Peripheral blood mononuclear cells (MNC) (containing lymphocytes and monocytes) were separated by Ficoll-Hypaque density-gradient centrifugation using techniques well known in the art. Mitogen-induced lymphocyte proliferation was determined as previously described in Singh, V. K., "Stimulatory effect of corticotropin-releasing neurohormone on human lymphocyte proliferation and interleukin-2 receptor expression". […]
(§5) [^3 H]-thymadine Incorporation: Cells were pulse-labeled for 4 hours with 0.5 μCi/well of [^3 H]methyl-thymidine (spec. act.=25 Ci/mmol from Amersham Intl.). […] To each vial, 2 ml of CytoScint fluid (ICN Biomedicals) was dispensed and the radioactivity determined using a liquid scintillation counter (Tri-Carb, Packard). […]

Experiment [4] deals with phytohemagglutinin (PHA)-induced lymphocyte proliferation. Description: PHA-induced lymphocyte proliferation ([3H]-thymidine incorporation). In kind it is cell-based, human. As for the experimental part:
as §2, §3, §4, §5

The structures appear in SMILES notation. Numbered stars: 1 amine (or outer) side, 2 acyl side, 3 side chain; on linkers, the order of the positions; unused ones are H or OH. Bridge positions count the residues as written; N and C are the ends. Square brackets hold non-standard residues; d marks the D form. Peptide text beside a SMILES is read from it. * marks the point of attachment. ξ: configuration not given here. Asp(3S-OH) = N[C@H](C(=O)O)[C@H](O)C(=O)O; Thr(4-Cl) = N[C@H](C(=O)O)[C@H](O)CCl; ξAsp(3ξ-OH) = NC(C(=O)O)C(O)C(=O)O; X3 = O=C(C(N[*:1])C(O)CCl)[*:2]; X1 = CCCCCCCCC[C@@H](O)CC(=O)*; X2 = CCCCCCCCCCCC(O)CC(=O)*; dDab = NCC[C@@H](N)C(=O)O; Dab = NCC[CH](N)C(=O)O; Orn = NCCC[CH](N)C(=O)O; hSer = N[CH](CCO)C(=O)O; Dhb = C/C=C(\N)C(=O)O

In experiment [1], `C/C=C1\NC(=O)C(C(C)O)NC(=O)C(CCCN)NC(=O)C(CCO)NC(=O)CNC(=O)C(CCN)NC(=O)C(NC(=O)CC(O)CCCCCCCCCCC)COC(=O)C(C(O)CCl)NC(=O)C(C(O)C(=O)O)NC1=O` (stereo not drawn) [ST-B, Syringotoxin B] (X2-S[Dab]G[hSer][Orn]T[Dhb][ξAsp(3ξ-OH)][X3]; ester 1-C; configuration not given here) yielded an MIC range of 6.25 to 100 µg/mL. In experiment [2], the “antifungal activity (overall range)” value was in the range of 0.8 to 200 g/mL.
As to `C/C=C1\NC(=O)[C@H](Cc2ccccc2)NC(=O)[C@H](CCCN=C(N)N)NC(=O)[C@@H](CCN)NC(=O)[C@H](CCN)NC(=O)[C@@H](CO)NC(=O)[C@@H](NC(=O)C[C@H](O)CCCCCCCCC)COC(=O)[C@H]([C@H](O)CCl)NC(=O)[C@H]([C@H](O)C(=O)O)NC1=O` [SR-E, Syringomycin-E] (X1-S[dS][Dab][dDab]RF[Dhb][Asp(3S-OH)][Thr(4-Cl)]; ester 1-C), the “inhibition of PWM response” value in experiment [3] (1.14 μM) is listed as “significantly inhibited”. In experiment [3] (5.72 μM, p=0.017), the “suppression of PWM response” value is 60%. The “significant inhibition of PHA response” value in experiment [4] (1.14 μM) is on record as “not”. For the same compound, the “suppression of PHA response” value in experiment [4] (5.72 μM, p=0.026) was 25%.
